Legend:
let-7 = let-7 expression by Q-RT-PCR; format: cell-based, human; conditions: parental or spheroid bladder cancer cells
Procedure: Total RNA from cell lines was isolated using the RNeasy Plus Mini kit (Qiagen, Valencia, USA) according to the manufacturer's protocol. Total RNA extraction from bladder tissue was performed with the QIAzol Lysis Reagent (Qiagen) followed by phenol extraction and ethanol precipitation. Total RNA was eluted in DEPC treated water and stored at -80° C. Total RNA extraction from urine was performed using the […] Isolation Kit (Ambion, Austin, USA). These total RNA were converted to cDNA using the SuperScript III First-Strand Synthesis System (Life technologies, Carlsbad, USA), which was then used as a template for Q-RT-PCR. Q-RT-PCR was performed using the Fast SYBR Green Master Mix (Thermo Fisher Scientific, Waltham, USA) on a 7900HT Fast Real-Time PCR System (Life technologies) in triplicate. Micro RNA (miRNA) extraction was performed using the […] Isolation Kit, and was reverse transcribed using TaqMan reverse transcription kit (Applied Biosystems, Foster City, USA) and miRNA-specific RT primers provided with TaqMan microRNA assays (Applied Biosystems). Q-RT-PCR for miRNAs was performed using the TaqMan Universal PCR Master Mix according to the manufacturer's protocol. SDS software (Applied Biosystems) was used to determine cycle threshold (Ct) values. Expression level was quantified relative to β-actin for mRNA and RNU6B for miRNA using the 2-ΔΔCt method (12).

YAP1 = YAP1 expression by western blotting; format: cell-based, human
Procedure: Whole cell lysates were extracted using RIPA buffer (Thermo Scientific) supplemented with 10 μL/mL Halt™ Protease Inhibitor Cocktail Kit (Life Technologies) and 30 μL/mL Halt™ Phosphatase Inhibitor Cocktail Kit (Life Technologies). The protein concentrations were determined using a Pierce™ BCA Protein Assay Kit (Life Technologies), and the protein were separated on NuPAGE® 4-12% Bis-Tris Gel (Life Technologies) according to the manufacturer's protocol. COX2 (D5H5), NANOG (D73G4), OCT4 (D7O5Z), CD133 (A3G6K), Snail (C15D3), ZEB1 (D80D3), Vimentin (D21H3), CDH2 (D4R1H), CDH1 (24E10), p-EGFR (D7A5), EGFR (D38B1), p-AKT (D9E), AKT (cat #, 9272), p-ERK (D13.14.4E), ERK (137F5), p-YAP1 (D9W2I), p-Src (cat #, 2101), Src (36D10), DNMT1 (D63A6), DNMT3A (D23G1), and DNMT3B (D7O7O) antibodies were obtained from Cell Signaling Technology (Danvers, Mass., USA), except for SOX2 (EPR3131; Abcam, Cambridge, USA), YAP1 (ab52771; Abcam), CD24 (cat #, AF5247-SP; R&D Systems, Minneapolis USA) and β-actin (A2228; Sigma-Aldrich). Secondary horseradish peroxidase (HRP)-conjugated antibodies were obtained from Cell Signaling Technology, and chemiluminescent detection of HRP-labeled antibodies was performed using Amersham ECL Prime Western Blotting Detection Reagent (GE Healthcare, Piscataway, USA). As loading control, β-actin was used.

panel of miRNAs = test: Expression of a panel of miRNAs in BFTC 905 cells; format: cell-based, human
Procedure: Total RNA from cell lines was isolated using the RNeasy Plus Mini kit (Qiagen, Valencia, USA) according to the manufacturer's protocol. Total RNA extraction from bladder tissue was performed with the QIAzol Lysis Reagent (Qiagen) followed by phenol extraction and ethanol precipitation. Total RNA was eluted in DEPC treated water and stored at −80° C. Total RNA extraction from urine was performed using the MirVana miRNA Isolation Kit (Ambion, Austin, USA). These total RNA were converted to cDNA using the SuperScript III First-Strand Synthesis System (Life technologies, Carlsbad, USA), which was then used as a template for Q-RT-PCR. Q-RT-PCR was performed using the Fast SYBR Green Master Mix (Thermo Fisher Scientific, Waltham, USA) on a 7900HT Fast Real-Time PCR System (Life technologies) in triplicate. Micro RNA (miRNA) extraction was performed using the MirVana miRNA Isolation Kit, and was reverse transcribed using TaqMan reverse transcription kit (Applied Biosystems, Foster City, USA) and miRNA-specific RT primers provided with TaqMan microRNA assays (Applied Biosystems). Q-RT-PCR for miRNAs was performed using the TaqMan Universal PCR Master Mix according to the manufacturer's protocol. SDS software (Applied Biosystems) was used to determine cycle threshold (Ct) values. Expression level was quantified relative to β-actin for mRNA and RNU6B for miRNA using the 2-ΔΔCt method (12).

[1] = Body weight of treated mice; format: in vivo; conditions: compared with control
Procedure: For celecoxib and/or VP treatment, celecoxib (5 mg/kg) was administered via intraperitoneal (i.p.) injection once a day (17), and VP (50 mg/kg) was administered via i.p. every other day (18). EP4 antagonist ONO-AE3-208 (10 mg/kg) was administered via i.p. once a day (19). Control was applied with same volume (100 μL per injection) of 10% dimethyl sulphoxide in […] (Sigma-Aldrich). For GEM and CDDP (GC) treatment (i.p.), CDDP (6 mg/kg) was only applied after the first GEM (60 mg/kg) treatment on day 2, followed by three consecutive treatments of GEM on day 5, 8 and 11 (17). The next cycle was started on day 18, and the treatment was continued until tumor reached 2 cm in diameter. For erlotinib treatment, the mice were treated once a day, 6 days per week, by oral gavage with erlotinib (100 mg/kg) or control (PBS containing 0.5% methyl cellulose (Sigma-Aldrich) and 0.1% TWEEN 80) (20). Tumor size was measured at least every three days. […] To establish xenograft model with acquired resistance to erlotinib, erlotinib sensitive 5637 cells were injected subcutaneously into the both flanks of 4-5 week-old NSG mice, and the tumors were consecutively passaged from NSG mice treated with erlotinib and celecoxib until the development of refractory tumors. […]

Cc1ccc(-c2cc(C(F)(F)F)nn2-c2ccc(S(N)(=O)=O)cc2)cc1 [celecoxib, Celecoxib]
let-7 expression (let-7): restoration
YAP1 expression (YAP1; COX2 inhibitor added to erlotinib, basal-type cells): no longer able to induce
YAP1 expression (YAP1; agent alone, bladder cancer cells): induced
expression of several miRNAs (panel of miRNAs): induced
body weight loss of mice [1]: did not observe body weight loss

From patent publication US10888549B2, “Pharmaceutical agents targeting cancer stem cells” (THE JOHNS HOPKINS UNIVERSITY, priority 2016, dated 2021)
